According to patent publication US20250002507A1, “7,8-DIHYDRO-5H-1,6-NAPHTHYRIDINE DERIVATIVES AS POSITIVE ALLOSTERIC MODULATORS OF THE MUSCARINIC ACETYLCHOLINE RECEPTOR M4 FOR TREATING NEUROLOGICAL AND PSYCHIATRIC DISORDERS” (Vanderbilt University, priority 2021, published 2025):
Where two headings read alike, the source gives them in different places.

Target: T1, Human M4 (Homo sapiens, UniProt P08173)
T1 construct: expressed in transfected cells
T1 sequence (P08173 1-479): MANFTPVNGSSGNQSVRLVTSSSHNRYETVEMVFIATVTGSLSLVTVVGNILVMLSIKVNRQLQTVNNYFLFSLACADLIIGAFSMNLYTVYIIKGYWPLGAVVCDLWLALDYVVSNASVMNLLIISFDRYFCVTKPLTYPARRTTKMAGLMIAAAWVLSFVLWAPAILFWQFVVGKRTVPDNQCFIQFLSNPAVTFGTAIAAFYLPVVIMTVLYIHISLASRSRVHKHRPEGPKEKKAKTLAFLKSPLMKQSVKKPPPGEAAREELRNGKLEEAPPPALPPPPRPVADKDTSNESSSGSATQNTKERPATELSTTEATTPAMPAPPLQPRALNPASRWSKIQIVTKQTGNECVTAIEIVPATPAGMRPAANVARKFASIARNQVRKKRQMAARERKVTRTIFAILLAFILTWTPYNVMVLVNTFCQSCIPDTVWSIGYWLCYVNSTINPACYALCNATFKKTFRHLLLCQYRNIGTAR
Assay: mAChR M4 cell-based functional assay (calcium flux, potentiation of EC20 acetylcholine response), hM4-Gqi5 CHO-K1 cells
Conditions: for Emax: CHO-K1, read-out: Emax (% ACh maximum at 30 μM); for Emax at 30 µM: CHO-K1, Human M4, % ACh maximum at 30 μM, read-out: Emax (% ACh maximum at 30 μM)
Outline: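 Positive allosteric modulation was scored as a concentration-dependent rise in the response to an EC20 dose of acetylcholine, added 144 s after the compound. Human M4-Gqi5 CHO-K1 cells carried Fluo-4 dye, and compounds ran as 11-point, 3-fold dilution series. EC50 and Emax came from four-parameter logistic fits of the FDSS fluorescence-ratio traces.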

[1] = Table 3, potentiation of EC20 acetylcholine response, calcium flux, CHO-K1 cells, read-out: Human M4 EC50

Structure (SMILES): Cc1c(N2CCc3ncc(N)cc3C2)nn2cnnc2c1C [Compound 152, 6-(7,8-dimethyl-[1,2,4]triazolo[4,3-b]pyridazin-6-yl)-5,6,7,8-tetrahydro-1,6-naphthyridin-3-amine]
- Emax: 102%
- EC50 [1]: 1280 nM

Structure (SMILES): CC(=O)Nc1cnc2c(c1)CN(c1nn3cnnc3c(C)c1C)CC2 [Compound 153, N-(6-(7,8-dimethyl-[1,2,4]triazolo[4,3-b]pyridazin-6-yl)-5,6,7,8-tetrahydro-1,6-naphthyridin-3-yl)acetamide]
- Emax at 30 µM (Table 3): 84%
- EC50 [1]: 3380 nM

Structure (SMILES): Cc1c(N2CCc3ncc(NC(=O)C(C)C)cc3C2)nn2cnnc2c1C [Compound 154, N-(6-(7,8-dimethyl-[1,2,4]triazolo[4,3-b]pyridazin-6-yl)-5,6,7,8-tetrahydro-1,6-naphthyridin-3-yl)isobutyramide]
- Emax at 30 µM (Table 3): 79%
- EC50 [1]: 3630 nM

Structure (SMILES): COc1ccc(C(=O)Nc2cnc3c(c2)CN(c2nn4cnnc4c(C)c2C)CC3)cn1 [Compound 155, N-(6-(7,8-dimethyl-[1,2,4]triazolo[4,3-b]pyridazin-6-yl)-5,6,7,8-tetrahydro-1,6-naphthyridin-3-yl)-6-methoxynicotinamide]
- Emax at 30 µM (Table 3): 92%
- EC50 [1]: 966 nM

Structure (SMILES): Cc1ccccc1C(=O)Nc1cnc2c(c1)CN(c1nn3cnnc3c(C)c1C)CC2 [Compound 156, N-(6-(7,8-dimethyl-[1,2,4]triazolo[4,3-b]pyridazin-6-yl)-5,6,7,8-tetrahydro-1,6-naphthyridin-3-yl)-2-methylbenzamide]
- Emax at 30 µM (Table 3): 70%
- EC50 [1]: 4210 nM

Structure (SMILES): Cc1cccc(C(=O)Nc2cnc3c(c2)CN(c2nn4cnnc4c(C)c2C)CC3)c1 [Compound 157, N-(6-(7,8-dimethyl-[1,2,4]triazolo[4,3-b]pyridazin-6-yl)-5,6,7,8-tetrahydro-1,6-naphthyridin-3-yl)-3-methylbenzamide]
- Emax at 30 µM (Table 3): 96%
- EC50 [1]: 785 nM

Structure (SMILES): Cc1c(N2CCc3ncc(NC(=O)c4ccc(F)cc4)cc3C2)nn2cnnc2c1C [Compound 158, N-(6-(7,8-dimethyl-[1,2,4]triazolo[4,3-b]pyridazin-6-yl)-5,6,7,8-tetrahydro-1,6-naphthyridin-3-yl)-4-fluorobenzamide]
- Emax at 30 µM (Table 3): 79%
- EC50 [1]: 672 nM

Structure (SMILES): Cc1c(N2CCc3ncc(Oc4ccccc4F)cc3C2)nn2cnnc2c1C [Compound 159, 6-(7,8-dimethyl-[1,2,4]triazolo[4,3-b]pyridazin-6-yl)-3-(2-fluorophenoxy)-5,6,7,8-tetrahydro-1,6-naphthyridine]
- Emax at 30 µM (Table 3): 109%
- EC50 [1]: 107 nM

Structure (SMILES): Cc1c(N2CCc3ncc(Oc4cccc(F)c4)cc3C2)nn2cnnc2c1C [Compound 160, 6-(7,8-dimethyl-[1,2,4]triazolo[4,3-b]pyridazin-6-yl)-3-(3-fluorophenoxy)-5,6,7,8-tetrahydro-1,6-naphthyridine]
- Emax at 30 µM (Table 3): 111%
- EC50 [1]: 145 nM

Structure (SMILES): COc1nc2c(cc1C)CN(c1nn3cnnc3c(C)c1C)CC2 [Compound 161, 6-(7,8-dimethyl-[1,2,4]triazolo[4,3-b]pyridazin-6-yl)-2-methoxy-3-methyl-5,6,7,8-tetrahydro-1,6-naphthyridine]
- Emax at 30 µM (Table 3): 105%
- EC50 [1]: 2750 nM

Structure (SMILES): Cc1cnc2c(c1)CN(c1nn3cc(C(=O)N4CCOCC4)nc3cc1C)CC2 [Compound 162, (7-methyl-6-(3-methyl-7,8-dihydro-1,6-naphthyridin-6(5H)-yl)imidazo[1,2-b]pyridazin-2-yl)(morpholino)methanone]
- Emax at 30 µM (Table 3): 105%
- EC50 [1]: 846 nM

Structure (SMILES): Cc1c(N2CCc3ncc(Nc4cnn(C)c4)cc3C2)nn2cnnc2c1C [Compound 163, 6-(7,8-dimethyl-[1,2,4]triazolo[4,3-b]pyridazin-6-yl)-N-(1-methyl-1H-pyrazol-4-yl)-5,6,7,8-tetrahydro-1,6-naphthyridin-3-amine]
- Emax at 30 µM (Table 3): 107%
- EC50 [1]: 754 nM

Structure (SMILES): Cc1c(N2CCc3ncc(Nc4ccnn4C)cc3C2)nn2cnnc2c1C [Compound 164, 6-(7,8-dimethyl-[1,2,4]triazolo[4,3-b]pyridazin-6-yl)-N-(1-methyl-1H-pyrazol-5-yl)-5,6,7,8-tetrahydro-1,6-naphthyridin-3-amine]
- Emax at 30 µM (Table 3): 109%
- EC50 [1]: 152 nM

Structure (SMILES): CCC(C)(O)c1cnc2c(c1)CN(c1nn3cnnc3c(C)c1C)CC2 (centres unmarked) [Compound 165, 2-(6-(7,8-dimethyl-[1,2,4]triazolo[4,3-b]pyridazin-6-yl)-5,6,7,8-tetrahydro-1,6-naphthyridin-3-yl)butan-2-ol]
- Emax at 30 µM (Table 3): 102%
- EC50 [1]: 1870 nM

Structure (SMILES): Cc1c(N2CCc3ncc(C(C)(O)C4CC4)cc3C2)nn2cnnc2c1C (centres unmarked) [Compound 166, 1-cyclopropyl-1-(6-(7,8-dimethyl-[1,2,4]triazolo[4,3-b]pyridazin-6-yl)-5,6,7,8-tetrahydro-1,6-naphthyridin-3-yl)ethan-1-ol]
- Emax at 30 µM (Table 3): 95%
- EC50 [1]: 1850 nM

Structure (SMILES): Cc1cc2c(nc1C)CCN(c1nn3cnnc3c(C)c1C)C2 [Compound 167, 6-(7,8-dimethyl-[1,2,4]triazolo[4,3-b]pyridazin-6-yl)-2,3-dimethyl-5,6,7,8-tetrahydro-1,6-naphthyridine]
- Emax: 106%
- EC50 [1]: 188 nM

Structure (SMILES): Cc1cnc2c(c1)CN(c1nn3cc(C(=O)NC4CC4)nc3cc1C)CC2 [Compound 168, N-cyclopropyl-7-methyl-6-(3-methyl-7,8-dihydro-1,6-naphthyridin-6(5H)-yl)imidazo[1,2-b]pyridazine-2-carboxamide]
- Emax at 30 µM (Table 3): 54%
- EC50 [1]: 3250 nM

Structure (SMILES): Cc1cnc2c(c1)CN(c1nn3cc(C(=O)N4CCN(C)CC4)nc3cc1C)CC2 [Compound 169, (7-methyl-6-(3-methyl-7,8-dihydro-1,6-naphthyridin-6(5H)-yl)imidazo[1,2-b]pyridazin-2-yl)(4-methylpiperazin-1-yl)methanone]
- Emax at 30 µM (Table 3): 111%
- EC50 [1]: 1180 nM

Structure (SMILES): Cc1cnc2c(c1)CN(c1nn3cc(C(=O)N4CCCCC4)nc3cc1C)CC2 [Compound 170, (7-methyl-6-(3-methyl-7,8-dihydro-1,6-naphthyridin-6(5H)-yl)imidazo[1,2-b]pyridazin-2-yl)(piperidin-1-yl)methanone]
- Emax at 30 µM (Table 3): 105%
- EC50 [1]: 934 nM

Structure (SMILES): Cc1cnc2c(c1)CN(c1nn3cc(C(=O)N4CCCC4)nc3cc1C)CC2 [Compound 171, [7-Methyl-6-(3-methyl-7,8-dihydro-5H-1,6-naphthyridin-6-yl)imidazo[1,2-b]pyridazin-2-yl]-pyrrolidin-1-yl-methanone]
- Emax at 30 µM (Table 3): 107%
- EC50 [1]: 1040 nM

Structure (SMILES): Cc1c(N2CCc3ncc(-c4cccnc4C(F)(F)F)cc3C2)nn2cnnc2c1C [Compound 172, 6-(7,8-dimethyl-[1,2,4]triazolo[4,3-b]pyridazin-6-yl)-3-(2-(trifluoromethyl)pyridin-3-yl)-5,6,7,8-tetrahydro-1,6-naphthyridine]
- Emax at 30 µM (Table 3): 73%
- EC50 [1]: 3530 nM

Structure (SMILES): COc1ncc(-c2cnc3c(c2)CN(c2nn4cnnc4c(C)c2C)CC3)cc1Cl [Compound 173, 3-(5-chloro-6-methoxypyridin-3-yl)-6-(7,8-dimethyl-[1,2,4]triazolo[4,3-b]pyridazin-6-yl)-5,6,7,8-tetrahydro-1,6-naphthyridine]
- Emax at 30 µM (Table 3): 80%
- EC50 [1]: 937 nM

Structure (SMILES): COc1nc(Cl)ccc1-c1cnc2c(c1)CN(c1nn3cnnc3c(C)c1C)CC2 [Compound 174, 3-(6-chloro-2-methoxypyridin-3-yl)-6-(7,8-dimethyl-[1,2,4]triazolo[4,3-b]pyridazin-6-yl)-5,6,7,8-tetrahydro-1,6-naphthyridine]
- Emax at 30 µM (Table 3): 85%
- EC50 [1]: 1070 nM

Structure (SMILES): CCc1ccncc1-c1cnc2c(c1)CN(c1nn3cnnc3c(C)c1C)CC2 [Compound 175, 6-(7,8-dimethyl-[1,2,4]triazolo[4,3-b]pyridazin-6-yl)-3-(4-ethylpyridin-3-yl)-5,6,7,8-tetrahydro-1,6-naphthyridine]
- Emax at 30 µM (Table 3): 81%
- EC50 [1]: 155 nM

Structure (SMILES): COc1ncc(-c2cnc3c(c2)CN(c2nn4cnnc4c(C)c2C)CC3)cc1F [Compound 176, 6-(7,8-dimethyl-[1,2,4]triazolo[4,3-b]pyridazin-6-yl)-3-(5-fluoro-6-methoxypyridin-3-yl)-5,6,7,8-tetrahydro-1,6-naphthyridine]
- EC50: 587 nM
- Emax: 89%

Structure (SMILES): Cc1c(N2CCc3ncc(-c4cnc(Cl)c(F)c4)cc3C2)nn2cnnc2c1C [Compound 177, 3-(6-chloro-5-fluoropyridin-3-yl)-6-(7,8-dimethyl-[1,2,4]triazolo[4,3-b]pyridazin-6-yl)-5,6,7,8-tetrahydro-1,6-naphthyridine]
- Emax at 30 µM (Table 3): 85%
- EC50 [1]: 747 nM

Structure (SMILES): COc1cnc(Cl)c(-c2cnc3c(c2)CN(c2nn4cnnc4c(C)c2C)CC3)c1 [Compound 178, 3-(2-chloro-5-methoxypyridin-3-yl)-6-(7,8-dimethyl-[1,2,4]triazolo[4,3-b]pyridazin-6-yl)-5,6,7,8-tetrahydro-1,6-naphthyridine]
- Emax at 30 µM (Table 3): 85%
- EC50 [1]: 578 nM

Structure (SMILES): COc1ncc(F)cc1-c1cnc2c(c1)CN(c1nn3cnnc3c(C)c1C)CC2 [Compound 179, 6-(7,8-dimethyl-[1,2,4]triazolo[4,3-b]pyridazin-6-yl)-3-(5-fluoro-2-methoxypyridin-3-yl)-5,6,7,8-tetrahydro-1,6-naphthyridine]
- Emax at 30 µM (Table 3): 84%
- EC50 [1]: 906 nM
